According to ChEMBL document CHEMBL5620379, “Discovery, SAR and mechanistic studies of quinazolinone-based acetamide derivatives in experimental visceral leishmaniasis” (Eur J Med Chem, 2023):
Calls of active or inactive are those of the source. No cut-off for these calls is given here.

What was measured:
[1] = tested on: J774; test: Cytotoxicity against mouse J774 cells at 12.5 uM incubated for 72 hrs by MTT assay relative to control; assay type: toxicity, cell-based; details: j774, 72 h
[2] = tested on: J774; test: Cytotoxicity against mouse J774 cells at 50 uM incubated for 72 hrs by MTT assay relative to control; assay type: toxicity, cell-based; details: j774, 72 h
[3] = tested on: Leishmania donovani; test: Antileishmanial activity against Leishmania donovani promastigotes measured after 48 hrs by MTT assay; assay type: functional, organism-based
[4] = tested on: Leishmania donovani; test: Antileishmanial activity against Leishmania donovani amastigotes infected in J774 macrophage assessed as inhibition of parasite growth incubated for 48 hrs by luciferase assay; assay type: functional, organism-based; details: J774, 48 h
[5] = tested on: J774; test: Cytotoxicity against mouse J774 macrophage incubated for 72 hrs by MTT assay; assay type: functional
[6] = Selectivity index, ratio of CC50 for mouse J774 macrophage to IC50 for Leishmania donovani amastigotes infected in J774 macrophage; assay type: toxicity; details: J774 macrophages, read-out: Ratio CC50/IC50
[7] = tested on: Leishmania donovani; test: Antileishmanial activity against Leishmania donovani promastigotes at 25 uM measured after 48 hrs by MTT assay relative to control; assay type: functional
[8] = Stability of the compound in stimulated gastric fluid at 10 ug/ml at pH 1.2 measured upto 120 min by HPLC analysis; assay type: ADME; details: simulated gastric fluid, at 10 µg/mL, read-out: Stability
[9] = Stability of the compound in stimulated intestinal fluid at 10 ug/ml at pH 6.8 measured after 120 min by HPLC analysis; assay type: ADME; details: simulated intestinal fluid, at 10 µg/mL, read-out: Stability
[10] = tested on: Leishmania donovani; test: Antileishmanial activity against amastigote form of Leishmania donovani infected in BALB/c mouse assessed as inhibition of parasite growth in liver at 10 mg/kg, po measured after 1 week post treatment by geimsa staining based analysis relative to control; assay type: functional; parameters: scale not given: the % may be the effect or the level left; details: time 1 weeks
[11] = tested on: Leishmania donovani; test: Antileishmanial activity against amastigote form of Leishmania donovani infected in BALB/c mouse assessed as inhibition of parasite growth in liver at 20 mg/kg, po measured after 1 week post treatment by geimsa staining based analysis relative to control; assay type: functional; parameters: scale not given: the % may be the effect or the level left; details: time 1 weeks
[12] = tested on: Leishmania donovani; test: Antileishmanial activity against amastigote form of Leishmania donovani infected in BALB/c mouse assessed as inhibition of parasite growth in spleen at 10 mg/kg, po measured after 1 week post treatment by geimsa staining based analysis relative to control; assay type: functional; parameters: scale not given: the % may be the effect or the level left; details: time 1 weeks
[13] = tested on: Leishmania donovani; test: Antileishmanial activity against amastigote form of Leishmania donovani infected in BALB/c mouse assessed as inhibition of parasite growth in liver at 40 mg/kg, po measured after 1 week post treatment by geimsa staining based analysis relative to control; assay type: functional; parameters: scale not given: the % may be the effect or the level left; details: time 1 weeks
[14] = tested on: Leishmania donovani; test: Antileishmanial activity against amastigote form of Leishmania donovani infected in BALB/c mouse assessed as inhibition of parasite growth in spleen at 40 mg/kg, po measured after 1 week post treatment by geimsa staining based analysis relative to control; assay type: functional; parameters: scale not given: the % may be the effect or the level left; details: time 1 weeks
[15] = Toxicity in BALB/c mouse assessed as effect on skin texture at 10 to 40 mg/kg, po measured after 1 week; assay type: organism-based; details: in vivo, 168 h, dose 10-40 mg/kg, time 1 weeks
[16] = tested on: Splenocyte; test: Immunostimulatory activity in mouse splenocyte assessed as decrease in IL-10 secretion at 10 to 40 mg/kg measured after 1 week by RT-PCR analysis relative to control; assay type: functional; parameters: scale not given: the % may be the effect or the level left; details: dose 10-40 mg/kg, time 1 weeks
[17] = tested on: Leishmania donovani; test: Antileishmanial activity against Leishmania donovani infected in golden hamster assessed as inhibition of parasite growth in liver at 80 mg/kg, po administered for 7 days and measured after 28 days by giemsa staining based analysis relative to control; assay type: functional; parameters: scale not given: the % may be the effect or the level left; details: time 28 day
[18] = Toxicity in golden hamster infected with Leishmania donovani assessed as reduction in serum AST level at 40 mg/kg ,po and measured after 28 days post infection (reference value: 82.72 IU/L); assay type: organism-based, Mesocricetus auratus; details: in vivo, 672 h, time 28 day
[19] = Toxicity in golden hamster infected with Leishmania donovani assessed as reduction in serum ALT level at 40 mg/kg ,po and measured after 28 days post infection (reference value: 81.58 IU/L); assay type: organism-based, Mesocricetus auratus; details: in vivo, 672 h, time 28 day
[20] = Renal toxicity in golden hamster assessed as effect on urea level at 40 mg/kg, po measured after 28 days post infection; assay type: organism-based, Mesocricetus auratus; details: in vivo, 672 h, time 28 day
[21] = tested on: J774; test: Immunostimulatory activity in mouse J774 macrophage infected with Leishmania donovani assessed as fold increase in IL-12 level at 25 uM measured after 24 hrs by RT-PCR analysis; assay type: functional
[22] = tested on: J774; test: Immunostimulatory activity in mouse J774 macrophage infected with Leishmania donovani promastigotes assessed as fold increase in iNOS mRNA expression at 25 uM measured after 48 hrs in presence of nitric oxide by spectrophotometer analysis; assay type: functional
[23] = tested on: J774; test: Downregulation of GSK-3beta phosphorylation in mouse J774 macrophage infected with Leishmania donovani at 25 uM measured after 8 to 12 hrs by immunoblot analysis; assay type: functional, cell-based; details: time 8-12 hrs
[24] = tested on: J774; test: Downregulation of CREB enrichment in mouse J774 macrophage infected with Leishmania donovani at 25 uM measured after 4 hrs by ChIP assay; assay type: functional, cell-based
[25] = tested on: Leishmania donovani; test: Induction of cell cycle arrest in Leishmania donovani promastigotes assessed as accumulation of cells at G1 phase at 25 uM measured after 12 hrs by PI staining based flow cytometry analysis (reference value: 35.7%); assay type: functional
[26] = tested on: Leishmania donovani; test: Induction of cell cycle arrest in Leishmania donovani promastigotes assessed as accumulation of cells at S phase at 25 uM measured after 8 hrs by PI staining based flow cytometry analysis (reference value: 28.6%); assay type: functional
[27] = tested on: Leishmania donovani; test: Induction of cell cycle arrest in Leishmania donovani promastigotes assessed as accumulation of cells at G2/M phase at 25 uM measured after 8 hrs by PI staining based flow cytometry analysis (reference value: 35.7%); assay type: functional
[28] = tested on: Leishmania donovani; test: Induction of cell cycle arrest in Leishmania donovani promastigotes assessed as accumulation of cells at G2/M phase at 25 uM measured after 12 hrs by PI staining based flow cytometry analysis (reference value: 35.7%); assay type: functional
[29] = tested on: Leishmania donovani; test: Induction of cell cycle arrest in Leishmania donovani promastigotes assessed as accumulation of cells at G2/M phase at 25 uM measured after 24 hrs by PI staining based flow cytometry analysis (reference value: 35.7%); assay type: functional
[30] = tested on: Leishmania donovani; test: Induction of autophagy in Leishmania donovani promastigotes assessed as increase in number of MDC-positive parasite by measuring MDC-labelled vacuoles at 25 uM measured after 24 hrs by MDC staining based analysis; assay type: functional, organism-based
[31] = tested on: Leishmania donovani; test: Antileishmanial activity against Leishmania donovani promastigotes at 25 uM measured after 12 hrs by luciferase assay relative to control; assay type: functional
[32] = tested on: Leishmania donovani; test: Antileishmanial activity against Leishmania donovani promastigotes at 25 uM measured after 12 hrs in presence of antipain by luciferase assay relative to control; assay type: functional
[33] = tested on: Leishmania donovani; test: Induction of autophagy in Leishmania donovani promastigotes assessed as fold induction of ATG12 gene at 25 uM measured after 24 hrs by RT-PCR analysis; assay type: functional
[34] = tested on: Leishmania donovani; test: Induction of apoptosis in Leishmania donovani promastigotes assessed as late phase apoptosis at 25 uM measured after 48 hrs by DNA laddering assay; assay type: functional, organism-based
[35] = tested on: Leishmania donovani; test: Induction of apoptosis in Leishmania donovani promastigotes assessed as appearance of intense swelling in mitochondria at 25 uM by transmission electron microscopy analysis; assay type: functional, organism-based

- remaining at 2 h, 10 ug/ml [8]: 94.5%
- remaining at 2 h, 10 ug/ml [9]: 97.5%
Structure (SMILES): Cn1c(-c2ccc(OCC(=O)Nc3ccccn3)cc2)nc2ccccc2c1=O
- Activity [1]: 90.78%
- Activity [2]: 52.15%
- IC50 [3]: 3.39 µM
- IC50 [4]: 3.55 µM
- CC50 [5]: 65 µM
- selectivity ratio [6]: 18.3
- Activity [7]: 85.64%
- Activity [10]: >50%
- Activity [11]: >50%
- Activity [12]: >50%
- Activity [13]: 85.4%
- Activity [14]: 86.3%
- Activity [15]: Non-Toxic
- Activity [16]: 47.69%
- Activity [17]: 86.5%
- Activity [18]: 123.38 IU/L
- Activity [19]: 101.88 IU/L
- Activity [20]: Non-Toxic
- fold change (FC) [21]: 3.4
- fold change (FC) [22]: 4.87
- Activity [23]: Active
- Activity [24]: Active
- Activity [25]: 65.8%
- Activity [26]: 20.7%
- Activity [27]: 23.8%
- Activity [28]: 18.7%
- Activity [29]: 13.9%
- Activity [30]: Active
- Activity [31]: 11.8%
- Activity [32]: 40.44%
- fold change (FC) [33]: 8.57
- Activity [34]: Active
- Activity [35]: Active
